# Laboratory results as given in publication PMC12155096 (International Journal of Molecular Sciences, 2025).
# Structures can show the parent of a compound that is named as a salt. Where two headings read alike, the source gives them in different places.
# Assays:
# Test in all cases: biochemical; call rule not given here
# [1] = target: Photinus pyralis (firefly) luciferase (Photinus pyralis, UniProt P08659); assay type: biochemical
# human CYP1A2 = target: T1, human CYP1A2 (Homo sapiens, UniProt P05177)
# T1 sequence (P05177 1-516): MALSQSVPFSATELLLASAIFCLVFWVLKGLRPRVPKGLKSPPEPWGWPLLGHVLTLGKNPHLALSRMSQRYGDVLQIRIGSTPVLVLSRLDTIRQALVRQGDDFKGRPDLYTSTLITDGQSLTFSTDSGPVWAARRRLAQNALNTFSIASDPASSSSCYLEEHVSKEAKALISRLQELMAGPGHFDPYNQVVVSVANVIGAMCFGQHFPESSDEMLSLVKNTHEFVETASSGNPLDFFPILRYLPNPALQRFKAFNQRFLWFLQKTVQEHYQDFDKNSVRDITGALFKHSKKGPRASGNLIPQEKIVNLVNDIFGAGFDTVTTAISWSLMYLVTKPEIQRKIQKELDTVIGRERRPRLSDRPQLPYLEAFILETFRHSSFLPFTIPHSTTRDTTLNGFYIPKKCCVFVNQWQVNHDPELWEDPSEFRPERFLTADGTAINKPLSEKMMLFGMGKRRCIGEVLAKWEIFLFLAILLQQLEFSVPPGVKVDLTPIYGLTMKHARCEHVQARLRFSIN
# human CYP2C9 = human CYP2C9 (Homo sapiens, UniProt P11712)
# human CYP2C19 = human CYP2C19 (Homo sapiens, UniProt P33261)
# human CYP2D6 = human CYP2D6 (Homo sapiens, UniProt P10635)
# CYP3A4 = CYP3A4 (Homo sapiens, UniProt P08684)
# [2] = CYP1A2 IC50 (half-maximal inhibitory concentration)
# [3] = CYP2C9 IC50 (half-maximal inhibitory concentration)
# [4] = CYP2C19 IC50 (half-maximal inhibitory concentration)
# [5] = CYP2D6 IC50 (half-maximal inhibitory concentration)
# [6] = CYP3A4 IC50 (half-maximal inhibitory concentration)
# Sequence of human CYP2C9 (P11712 whole entry): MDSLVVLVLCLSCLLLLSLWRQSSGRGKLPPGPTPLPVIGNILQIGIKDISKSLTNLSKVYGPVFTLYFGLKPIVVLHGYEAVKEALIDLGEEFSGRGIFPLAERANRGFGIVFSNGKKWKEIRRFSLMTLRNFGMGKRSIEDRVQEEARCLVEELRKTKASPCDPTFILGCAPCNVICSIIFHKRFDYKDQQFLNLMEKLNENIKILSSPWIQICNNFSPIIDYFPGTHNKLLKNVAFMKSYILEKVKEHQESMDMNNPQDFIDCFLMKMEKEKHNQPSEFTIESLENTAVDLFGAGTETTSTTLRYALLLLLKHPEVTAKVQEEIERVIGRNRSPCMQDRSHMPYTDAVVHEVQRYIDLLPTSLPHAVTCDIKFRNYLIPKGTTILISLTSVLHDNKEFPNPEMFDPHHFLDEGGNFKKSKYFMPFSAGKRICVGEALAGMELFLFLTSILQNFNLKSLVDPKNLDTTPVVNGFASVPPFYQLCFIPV
# Sequence of human CYP2C19 (P33261 whole entry): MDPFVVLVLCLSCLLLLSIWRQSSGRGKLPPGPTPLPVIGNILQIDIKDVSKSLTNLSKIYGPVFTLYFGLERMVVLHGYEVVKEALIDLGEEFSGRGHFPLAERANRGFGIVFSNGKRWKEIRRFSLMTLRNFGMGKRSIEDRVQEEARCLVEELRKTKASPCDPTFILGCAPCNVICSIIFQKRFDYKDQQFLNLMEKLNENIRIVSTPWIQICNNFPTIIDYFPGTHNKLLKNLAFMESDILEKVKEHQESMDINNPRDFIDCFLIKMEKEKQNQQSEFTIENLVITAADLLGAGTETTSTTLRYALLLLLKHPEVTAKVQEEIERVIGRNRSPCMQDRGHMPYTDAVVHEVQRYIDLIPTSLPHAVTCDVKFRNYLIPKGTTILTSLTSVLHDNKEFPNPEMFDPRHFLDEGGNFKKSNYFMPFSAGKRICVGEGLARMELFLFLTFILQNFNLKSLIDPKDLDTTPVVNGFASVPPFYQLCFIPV
# Sequence of human CYP2D6 (P10635 whole entry): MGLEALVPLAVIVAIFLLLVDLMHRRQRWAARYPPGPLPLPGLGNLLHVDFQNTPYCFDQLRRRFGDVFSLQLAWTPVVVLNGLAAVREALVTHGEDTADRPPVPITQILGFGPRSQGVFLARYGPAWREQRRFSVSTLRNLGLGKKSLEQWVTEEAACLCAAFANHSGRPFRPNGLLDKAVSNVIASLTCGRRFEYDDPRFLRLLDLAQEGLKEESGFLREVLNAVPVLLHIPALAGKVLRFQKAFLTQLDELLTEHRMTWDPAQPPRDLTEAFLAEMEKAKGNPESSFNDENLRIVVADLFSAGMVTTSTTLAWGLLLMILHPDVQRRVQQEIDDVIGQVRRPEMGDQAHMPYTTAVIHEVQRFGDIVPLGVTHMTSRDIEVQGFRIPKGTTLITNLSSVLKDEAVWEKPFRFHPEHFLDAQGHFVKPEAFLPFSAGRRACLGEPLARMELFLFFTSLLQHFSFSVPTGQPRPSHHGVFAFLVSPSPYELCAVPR
# Sequence of CYP3A4 (P08684 whole entry): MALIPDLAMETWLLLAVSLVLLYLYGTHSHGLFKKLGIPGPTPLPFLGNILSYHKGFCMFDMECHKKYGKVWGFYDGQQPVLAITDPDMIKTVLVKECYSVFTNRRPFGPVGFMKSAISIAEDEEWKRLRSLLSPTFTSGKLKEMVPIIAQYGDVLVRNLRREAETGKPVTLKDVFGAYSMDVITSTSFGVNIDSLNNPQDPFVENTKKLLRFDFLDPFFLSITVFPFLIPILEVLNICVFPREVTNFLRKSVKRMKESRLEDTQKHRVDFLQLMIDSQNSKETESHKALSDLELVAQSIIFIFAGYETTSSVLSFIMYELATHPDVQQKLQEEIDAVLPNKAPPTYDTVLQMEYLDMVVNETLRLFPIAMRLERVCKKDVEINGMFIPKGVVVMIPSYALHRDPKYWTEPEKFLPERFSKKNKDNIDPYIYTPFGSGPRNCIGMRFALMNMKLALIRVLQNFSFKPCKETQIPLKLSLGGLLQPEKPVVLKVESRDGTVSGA
# Sequence of Photinus pyralis (firefly) luciferase (P08659 whole entry): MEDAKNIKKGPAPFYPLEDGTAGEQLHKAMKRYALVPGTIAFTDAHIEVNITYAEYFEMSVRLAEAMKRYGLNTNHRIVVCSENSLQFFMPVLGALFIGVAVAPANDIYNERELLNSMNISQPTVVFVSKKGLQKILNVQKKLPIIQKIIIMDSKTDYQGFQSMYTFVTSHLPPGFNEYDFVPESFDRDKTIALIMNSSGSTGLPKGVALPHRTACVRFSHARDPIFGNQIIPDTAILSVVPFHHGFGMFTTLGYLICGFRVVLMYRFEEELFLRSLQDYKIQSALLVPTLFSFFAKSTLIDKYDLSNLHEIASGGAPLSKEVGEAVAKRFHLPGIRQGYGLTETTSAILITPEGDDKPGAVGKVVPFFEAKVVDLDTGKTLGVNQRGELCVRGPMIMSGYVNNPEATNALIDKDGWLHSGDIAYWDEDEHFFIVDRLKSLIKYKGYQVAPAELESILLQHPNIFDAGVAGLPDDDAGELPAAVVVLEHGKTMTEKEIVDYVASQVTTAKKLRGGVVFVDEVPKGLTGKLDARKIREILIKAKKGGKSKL
SMILES,Luciferase IC50 (half-maximal inhibitory concentration) [1],IC50 (human CYP1A2; [2]) [µM],IC50 (human CYP2C9; [3]) [µM],IC50 (human CYP2C19; [4]) [nM],IC50 (human CYP2D6; [5]) [µM],IC50 (CYP3A4; [6]) [nM],IC50 (human CYP1A2; CYP1A2 IC50) [µM],IC50 (human CYP2C19; CYP2C19 IC50) [nM],IC50 (CYP3A4; CYP3A4 IC50) [nM],further results
C#CCOS(=O)OC1CCCCC1Oc1ccc(C(C)(C)C)cc1 (stereo not shown) [Propargite],Inactive,7.75,0.49,780,16,1870,–,–,–,–
CCC(=O)O[C@H]1[C@H](O[C@@H]2[C@@H](C)[C@H](O[C@H]3C[C@@](C)(OC)[C@@H](O)[C@H](C)O3)[C@@H](C)C(=O)O[C@H](CC)[C@@](C)(O)[C@H](O)[C@@H](C)C(=O)[C@H](C)C[C@@]2(C)O)O[C@H](C)C[C@@H]1N(C)C [Erythromycin estolate],–,–,–,–,–,–,–,–,–,IC50 [1]: 55 µM; IC50 (human CYP1A2): 33.5 ± 11 µM; IC50 (human CYP2C9): 32.7 ± 12.3 µM; IC50 (human CYP2C19): 47100 nM; IC50 (human CYP2D6): 30.5 ± 9.76 µM; IC50 (CYP3A4): 290 ± 40 nM
"O=S(=O)(Oc1ccc(Cl)cc1Cl)c1ccccc1 [2,4-Dichlorophenyl benzenesulfonate]",–,1.58,39.2,490,64.4,2120,–,–,–,IC50 [1]: 54.6 µM; AC50 (human CYP1A2; CYP1A2 AC50 (half-maximal activity concentration)): 2240 nM; AC50 (human CYP2C9; CYP2C9 AC50 (half-maximal activity concentration)): 35.7 µM; AC50 (human CYP2C19; CYP2C19 AC50 (half-maximal activity concentration)): 770 nM; IC50 (human CYP2C19; IC50 CYP2C19 assay): 420 nM; AC50 (human CYP2D6; CYP2D6 AC50 (half-maximal activity concentration)): 51.1 µM; AC50 (CYP3A4; CYP3A4 AC50 (half-maximal activity concentration)): 3.27 µM
N#CC(CCc1ccc(Cl)cc1)(Cn1cncn1)c1ccccc1 (stereo not shown) [Fenbuconazole],Inactive,35.8,1.94,170,38.6,50,–,–,–,–
"CN(C)c1ccc(Cc2ccc(N(C)C)cc2)cc1 [4,4'-Methylenebis(N,N-dimethylaniline)]",Inactive,4.55,25.5,220,40.1,19900,–,–,–,–
Clc1ccc(C2(Cn3cncn3)CC(Br)CO2)c(Cl)c1 (stereo not shown) [Bromuconazole],Inactive,21.7,3.35,120,21,80,–,–,–,–
Cc1ccc2ccc3cccc4ccc1c2c34 [1-Methylpyrene],–,–,–,–,–,–,0.86,31800,30500,IC50 [1]: 44.9 µM; IC50 (human CYP2C9; CYP2C9 IC50): 55.4 µM; IC50 (human CYP2D6; CYP2D6 IC50): 55.4 µM
CC(C)(C)[C@@H](O)[C@@H](Cc1ccc(Cl)cc1)n1cncn1 (racemic) [Paclobutrazol],Inactive,74.8,12.1,330,36.8,140,–,–,–,–
CC1(C)C2(Cl)C(Cl)C(Cl)C(Cl)(C(Cl)Cl)C1(Cl)C2Cl (stereo not shown) [Strobane],–,–,–,–,–,–,41.2,1590,820,Luciferase IC50 [1]: Inactive; IC50 (human CYP2C9; CYP2C9 IC50): 9.89 µM; IC50 (human CYP2D6; CYP2D6 IC50): 44 µM
CCCN(CCOc1c(Cl)cc(Cl)cc1Cl)C(=O)n1ccnc1 [Prochloraz],Inactive,0.22,0.81,50,0.53,70,–,–,–,–
CCOC(=O)N(C)C(=O)CSP(=S)(OCC)OCC [Mecarbam],–,–,–,–,–,–,2.91,90,2600,Luciferase IC50 [1]: Inactive; IC50 (human CYP2C9; CYP2C9 IC50): 0.7 µM; IC50 (human CYP2D6; CYP2D6 IC50): 27.5 µM
"Cc1cc(-c2ccc(N)c(C)c2)ccc1N [3,3'-Dimethylbenzidine]",–,–,–,–,–,–,0.47,6240,10600,IC50 [1]: 76.3 µM; IC50 (human CYP1A2; IC50 CYP1A2 assay): 0.64 µM; IC50 (human CYP2C9): 23.4 µM; IC50 (human CYP2D6): 3.41 µM
CCCCCCCCCCCCN [Dodecylamine hydrochloride],–,–,–,–,–,–,2.55,470,34300,Luciferase IC50 [1]: Inactive; IC50 (human CYP2C9; CYP2C9 IC50): 6.64 µM; IC50 (human CYP2D6; CYP2D6 IC50): 3.3 µM
OCc1c2ccccc2cc2ccccc12 [9-Anthracenemethanol],–,0.7,27.6,26100,60.1,29800,–,–,–,IC50 [1]: 68.7 µM
CCCCN(CCCC)CC(O)c1cc(Cl)cc2c1-c1ccc(Cl)cc1/C2=C/c1ccc(Cl)cc1 (stereo not shown) [Lumefantrine],–,–,–,–,–,–,14.8,26900,16800,Luciferase IC50 [1]: Inactive; IC50 (human CYP2C9; CYP2C9 IC50): 16.2 µM; IC50 (human CYP2D6; CYP2D6 IC50): 0.69 µM
CC(C)(C)C(O)C(Oc1ccc(-c2ccccc2)cc1)n1cncn1 (stereo not shown) [Bitertanol],Inactive,48.8,7.56,48300,63.5,670,–,–,–,–
CC(C(O)c1ccccc1)N(C)CCOC(c1ccccc1)c1ccccc1 (stereo not shown) [Difeterol],Inactive,–,–,–,–,–,–,–,–,IC50 (human CYP1A2): 23.5 ± 5.69 µM; IC50 (human CYP2C9): 16.8 ± 1.09 µM; IC50 (human CYP2C19): 7120 ± 1980 nM; IC50 (human CYP2D6): 0.11 ± 0.06 µM; IC50 (CYP3A4): 620 ± 70 nM
CCN(CC)C(=O)[C@@H]1C=C2c3cccc4[nH]cc(c34)C[C@H]2N(C)C1 [Lysergide],–,–,–,–,–,–,151,156000,71800,Luciferase IC50 [1]: Inactive; IC50 (human CYP2C9; CYP2C9 IC50): 72.9 µM; IC50 (human CYP2D6; CYP2D6 IC50): 0.43 µM
OC(c1ccc(Cl)cc1)(c1cncnc1)c1ccccc1Cl (stereo not shown) [Fenarimol],Inactive,71.4,6.1,240,35.6,170,–,–,–,–
c1ccc2sc(SN(C3CCCCC3)C3CCCCC3)nc2c1,–,–,–,–,–,–,32.9,15600,5160,Luciferase IC50 [1]: Inactive; IC50 (human CYP2C9; CYP2C9 IC50): 8.95 µM; IC50 (human CYP2D6; CYP2D6 IC50): 0.56 µM
COP(N)(=S)Oc1ccccc1C(=O)OC(C)C (stereo not shown) [Isocarbophos],Inactive,1.14,5.11,130,46.1,1610,–,–,–,–
Nc1ccc2c(c1)C(=O)c1ccccc1C2=O [2-Aminoanthraquinone],–,0.2,22.5,14000,41.4,1640,–,–,–,IC50 [1]: 2.67 µM
CCOP(=S)(Oc1cnc(C(C)(C)C)nc1)OC(C)C (stereo not shown) [Tebupirimfos],–,–,–,–,–,–,24,620,1500,Luciferase IC50 [1]: Inactive; IC50 (human CYP2C9): 1.79 µM; IC50 (human CYP2D6): 34.3 µM
OC(Cn1cncn1)(c1ccc(F)cc1)c1ccccc1F (stereo not shown) [Flutriafol],Inactive,35.7,0.77,1630,37,240,–,–,–,–
